Assays:
Assay type in all cases: physicochemical
[1] = CCC extraction with DME of clarified fermentation broth from Clostridium acetobutylicum, GC and DNS assay
Method: This example describes three different runs of the CCC with fermentation broth from Clostridium acetobutylicum. […] The fermentation was intentionally interrupted prior to completion.
The extraction column operated at room temperature (˜25° C.) throughout the column. Periodic extract and raffinate samples were taken and analyzed for the constituents in the extract and raffinate discharges.
This example describes three different runs. In all cases, the mass of solvent to the mass of feed ratio (S/F) was 0.9. In all example the fermentation broth was first centrifuged to removal all cellular matter. Thus, the feed solution was clarified. In the case of the first run, the following components were measured via gas chromatograph (GC) analysis using external standard calibration. The external standard was run prior to analyzing the samples to provide individual calibration between peak area and the respective constituent under measure. […] Acetate was the conjugate base of acetic acid. Butyrate was the conjugate base of butyric acid. All components were quantified in the extract and raffinate. Since the extract and raffinate are mostly water and DME dissolves in water to approximately 20 wt. %, the samples were allowed to degas over a 24 hour period.
During the run, samples were taken of the extract and raffinate. In the case of the extract, the bulk DME was removed by reduction of pressure and addition of heat to flash the DME from the water and other solution constituents.
Extract and raffinate samples were collected at periodic intervals during the CCC testing. […] Glucose was measured via a DNS (3,5-dinitrosalicylic acid) assay.
In cases where the extract formed a two phase solution, the extract samples were diluted with distilled water to create a single phase and homogenous sample prior to GC. The dilution factor was then used to correct the GC measurements for concentrations prior to dilution.

[2] = Distribution coefficients of ABE mixtures between DME and aqueous phase in agitated pressure vessel, HPLC
Method: The compositions of the aqueous mixtures were based on concentrations typically produced in a cellulosic fermentation.
Mixtures were charged to a pressure vessel and agitated to provide adequate contacting between the aqueous and solvent (DME) phases. Heat tape was used to control the temperature of the liquid that was measured by thermocouples. Pressure and temperature measurements were taken every five minutes. After temperature and pressure stabilization agitation was ceased and the liquid phases were allowed to fully settle.
A mass balance was also performed on each component of the ABE and BE mixtures to determine a degree of accuracy of the results.

[3] = Packed-column extraction of ethanol and ABE solutions with liquid DME, incremental distribution coefficients; conditions: for Distribution Coefficient: ABE solution
Method: The tests were carried out in a 50-inch long by 0.68-inch internal diameter (ID) column containing stainless steel distillation packing to increase mass transfer between the liquid DME and the aqueous solution. The flow rate of the liquid DME for all the tests was about […], which calculates to a superficial velocity of the liquid DME of ˜0.3 cm/sec.
For each test, about 65 g of a pre-made feed solution was charged to the extraction column, and the column was sealed. DME was introduced into the system and pressure was maintained at 250 psi with the lab pump. Each run was carried out at ambient temperature (about 30° C.), and flow was manually controlled with the pressure-reduction valve.
About ⅓ of the charge was extracted in each test with DME in three fractions, and the raffinate was collected at the end of each test in two fractions. In the event that the concentration of ethanol, or ABE, in the raffinate was not homogeneous along the length of the column, the raffinate was collected in two fractions where RAF#1 was the first (bottom) portion of the raffinate drained and RAF#2 was the remaining (upper) portion.
All samples along with controls were sent to R.D. Laboratories (Washington, Mo.) for gas chromatography (GC) analysis.
The distribution coefficient (DC) is calculated as the ratio of the concentration of the component in the extract (y) phase to the concentration of the component in the raffinate (x) phase, or DC=Cy/Cx. Using the material balance information in the tables above, and the component analysis supplied by R.D. Labs, the incremental DCs for each fraction were calculated. These DCs are calculated using the conservative assumption that there is no dissolved DME in the liquid phase remaining in the extractor.

[4] = Run 3, Extract Bot, time 31 min
[5] = Run 3, Extract Bot, time 37 min
[6] = Run 3, Extract Top, time 31 min
[7] = Run 3, Extract Top, time 37 min

Compound | concentration in sample [1, 4] [µg/mL] | concentration in sample [1, 5] [µg/mL] | concentration in sample [1, 6] [µg/mL] | concentration in sample [1, 7] [µg/mL] | concentration in sample ([1]; Run 3, Extract, time 22 min) [µg/mL] | concentration in sample ([1]; Run 3, Extract, time 27 min) [µg/mL] | concentration in sample ([1]; Run 3, Extract, time 43 min) [µg/mL] | concentration in sample ([1]; Run 3, Extract, time 70 min) [µg/mL] | concentration in sample ([1]; Run 3, Extract, time 74 min) [µg/mL] | concentration in sample ([1]; Run 3, Extract, time 78 min) [µg/mL] | concentration in sample ([1]; Run 3, Extract, time 82 min) [µg/mL] | concentration in sample ([1]; Run 3, Feed, time 0 min) [µg/mL] | concentration in sample ([1]; Run 3, Raffinate, time 22 min) [µg/mL] | concentration in sample ([1]; Run 3, Raffinate, time 27 min) [µg/mL] | concentration in sample ([1]; Run 3, Raffinate, time 31 min) [µg/mL] | concentration in sample ([1]; Run 3, Raffinate, time 37 min) [µg/mL] | concentration in sample ([1]; Run 3, Raffinate, time 43 min) [µg/mL] | concentration in sample ([1]; Run 3, Raffinate, time 70 min) [µg/mL] | concentration in sample ([1]; Run 3, Raffinate, time 74 min) [µg/mL] | concentration in sample ([1]; Run 3, Raffinate, time 78 min) [µg/mL] | further results
sugar | 4740 | 5780 | 0 | 0 | 1460 | 1440 | 6200 | 3940 | 3870 | 4810 | 4950 | 48470 | 1390 | 950 | 47660 | 41230 | 48870 | 42100 | 44360 | 48180 | extraction into DME ([1]; Run 2): a significant portion of the sugar was not extracted; concentration in sample ([1]; Run 3, Raffinate, time 82 min): 43140 µg/mL
CCCC(=O)O [butyrate] | 1570 | 1240 | 22090 | 22520 | 3520 | 9290 | 2210 | 1710 | 1380 | 3010 | 1880 | 1710 | 50780 | 19520 | 880 | 880 | 880 | 950 | 970 | 870 | extraction into DME ([1]; Run 1, pH greater than 5.5): About half; concentration in sample ([1]; Run 3, Raffinate, time 82 min): 930 µg/mL
CC(C)=O [Acetone, acetone] | 7880 | 7900 | 7030 | 6440 | 2980 | 5300 | 5140 | 4610 | 4090 | 3830 | 4630 | 4870 | 1200 | 400 | 310 | 140 | 150 | 110 | 600 | 820 | concentration in sample ([1]; Run 3, Raffinate, time 82 min): 460 µg/mL; distribution coefficient (slope of line fit) ([2]; 38° C.): 1.27; DC ([2]; test ABE1, […] C., 104 psig): 1.28; DC ([2]; test ABE2, 38.3 ° C., 102 psig): 1.25; DC ([2]; test ABE3, 38.3 ° C., 103 psig): 1.23; DC ([2]; test ABE4, 38.0 ° C., 103 psig): 1.34; Distribution Coefficient ([3]; fraction F1, liquid DME): 0.24; Distribution Coefficient ([3]; fraction F2, liquid DME): 0.16; Distribution Coefficient ([3]; fraction F3, liquid DME): 0.04; distribution coefficient, previous measurements ([3]; previous results, DME/aqueous): 0.25

— patent US9630894B2, “Energy efficient method and apparatus for the extraction of biomolecules from dilute aqueous solution” (DYNASEP INC., priority 2012, dated 2017)
